Experimental findings from US12497408B2, “Tetracyclic compounds and methods for the treatment of Zika virus infection” (priority 2021, dated 2025) are described below.

Usually EC50 stands for the concentration giving half of the maximal effect.

Structures are written as SMILES.

This assay relates to ZIKV. Description: ZIKV reporter virus-based antiviral screening on Huh7 cells. The assay is classed as cell-based, Zika virus. The following applies: Zika virus, Huh-7, 48 h, Huh7 cells infected with recombinant luciferase reporter ZIKV (MOI about 0.1), luciferase signal. An excerpt: Protocol for ZIKV reporter virus-based antiviral screening on Huh7 cells:
• Human hepatocyte-derived carcinoma cell line (Huh7) 2. Reagents • ViviRen™ Live Cell Substrate (Promega, Cat #E6492) or Nano Glo assay system (Promega: N1130) • White opaque 96-well TC-treated microplates (Corning, Cat #3916) • 96-well Clear V-Bottom TC-treated Microplate (Corning, Cat #3894) • Complete cell culture media: DMEM (Gibco, Cat #10569) supplemented with 10% FBS (HyClone, Cat #SH30071.03IH25-40)+1% MEM Non-Essential Amino Acids Solution 100×(Gibco, Cat #11140050)+1% Penicillin-Streptomycin (10,000 U/mL) (Gibco, Cat #15140122). • Assay media: DMEM media (Gibco, Cat #31053028) supplemented with 2% FBS, 2% GlutaMAX™ Supplement (Gibco Cat #35050061), 1% Sodium Pyruvate solution (Gibco, Cat #11360070), 1% MEM Non-Essential Amino Acids Solution 100× and 1% Penicillin-Streptomycin (10,000 U/mL). • Trypsin-EDTA solution (Gibco, Cat #25200056) 3. Virus • Recombinant ZIKV strain with Renilla luciferase gene (strain FSS-Rlu) or Nano luciferase gene (Strain PRV-Nano, Dakar-Nano) 4. Instruments • BioTek Cytation 5 or other plate-readers for chemiluminescence detection model. • Eppendorf plate centrifuge • Plate shaker • Eppendorf multichannel pipettes Procedures Day 1: Preparation of Cells • Human hepatocyte-derived carcinoma cell line (Huh7) cells were detached from a T-175 flask by using a Trypsin-EDTA solution. The detached cells were suspended in complete culture media in a sterile 50-ml conical tube. • The 50-ml conical tube was centrifuged at 1200×rpm for 3 min at room temperature. • The cells were resuspended in assay media. The cell numbers were counted, and the cells diluted to a density of 3×10^5 cells/ml. • The cells were plated at 50 μl cells per well in White opaque 96-well plates (assay plates). Gently shake the plates to ensure cells to attach to the plate evenly. • The plated cells were incubated in a humidified incubator (37° C. with 5% CO2). Day 2: Infection • 1) Nine serial (2-fold or 3-fold) concentrated compounds were prepared using 90% DMSO solution and DMSO controls in a clear V-bottom 96-well plate (compound plate). • For example:
• 2) The reporter virus stock was diluted to a concentration of 3×10^4 FFU (FFU: focus-forming unit)/ml using the assay media. 200 μl diluted virus per well was aliquoted into a clear V-bottom 96-well plate (mixing plate). • 3) 1 μl above 400×concentrated compound dilutions was added from the compound plate to each well of the mixing plate. The plates were shaken on a plate shaker for 5 min. • 4) 50 μl compound-virus mixture was added into each well of the assay plates (the MOI is about 0.1). The plates were shaken gently by mixing the virus evenly. • An example of the format for assay plate:
• control. • 5) The plates were centrifuged at 1000 rpm for 15 s. • 6) The plates were incubated at 37° C. with 5% CO2 in a humidified incubator for 48 hrs. Day 4: Read Luciferase Signals • 7) The ViviRen™ Live Cell Substrate was diluted in assay media for 3000× folds. 25 μl of diluted substrates was added into each well of the assay plates. • For Nano-Glo assay system, 50 μl diluted substrates (50×fold diluted from the stock in assay buffer) were added. • 8) The plates were incubated at room temperature for 5 min. • 9) Optimally, cell viability is measured using the Promega Cell-titer Glo kit (only used when ZIKV-Rlu was used for infection). • 10) Luciferase signals were read using the Cytation 5 with gain value of 120-150. Data Analysis • a. The luciferase signals from DMSO-treated groups (un-treated controls) were set as 100%. The relative luciferase signals were obtained by normalizing the luciferase signals from each dilution-treated group to that of the controls. • b.
As to `COC(=O)N[C@H](C(=O)N1[C@H](c2nc(Cl)c(-c3cc4c5c(c3)OCc3cc(-c6[nH]c([C@@H]7C[C@@H]8C[C@@H]8N7C(=O)[C@@H](NC(=O)OC)C(C)(C)C(F)(F)F)nc6Cl)cc(c3-5)OC4)[nH]2)C[C@@H]2C[C@@H]21)C(C)(C)C(F)(F)F` [Compound 12, dimethyl ((2S,2′S)-((1S,1′S,3S,3′S,5S,5′S)-((5,10-dihydrochromeno[5,4,3-cde]chromene-2,7-diyl)bis(4-chloro-1H-imidazole-5,2-diyl))bis(2-azabicyclo[3.1.0]hexane-3,2-diyl))bis(4,4,4-trifluoro-3,3-dimethyl-1-oxobutane-1,2-diyl))dicarbamate], the EC50 stood at 11.9 nM.
For the compound `COC(=O)N[C@H](C(=O)N1CCCC[C@H]1c1nc(Cl)c(-c2cc3c4c(c2)OCc2cc(-c5[nH]c([C@@H]6CCCCN6C(=O)[C@@H](NC(=O)OC)C(C)C)nc5Cl)cc(c2-4)OC3)[nH]1)C(C)C` [Compound 13, dimethyl ((2S,2′S)-((2S,2′S)-((5,10-dihydrochromeno[5,4,3-cde]chromene-2,7-diyl)bis(4-chloro-1H-imidazole-5,2-diyl))bis(piperidine-2,1-diyl))bis(3-methyl-1-oxobutane-1,2-diyl))dicarbamate], the EC50 was 4.5 nM.
For `CC[C@H](C)[C@H](NC(=O)OC)C(=O)N1CCCC[C@H]1c1nc(Cl)c(-c2cc3c4c(c2)OCc2cc(-c5[nH]c([C@@H]6CCCCN6C(=O)[C@@H](NC(=O)OC)[C@@H](C)CC)nc5Cl)cc(c2-4)OC3)[nH]1` [Compound 14, dimethyl ((2S,2′S,3S,3′S)-((2S,2′S)-((5,10-dihydrochromeno[5,4,3-cde]chromene-2,7-diyl)bis(4-chloro-1H-imidazole-5,2-diyl))bis(piperidine-2,1-diyl))bis(3-methyl-1-oxopentane-1,2-diyl))dicarbamate] the value was 4.6 nM; for `COC(=O)N[C@H](C(=O)N1CC2(CC2)C[C@H]1c1nc(Cl)c(-c2cc3c4c(c2)OCc2cc(-c5[nH]c([C@@H]6CC7(CC7)CN6C(=O)[C@@H](NC(=O)OC)C(C)C)nc5C(C)C)cc(c2-4)OC3)[nH]1)C(C)C` [Compound 15, methyl ((S)-1-((S)-6-(5-(7-(4-chloro-2-((S)-5-((methoxycarbonyl)-L-valyl)-5-azaspiro[2.4]heptan-6-yl)-1H-imidazol-5-yl)-5,10-dihydrochromeno[5,4,3-cde]chromen-2-yl)-4-isopropyl-1H-imidazol-2-yl)-5-azaspiro[2.4]heptan-5-yl)-3-methyl-1-oxobutan-2-yl)carbamate], 3.7 nM.
On to `CC[C@H](C)[C@H](NC(=O)OC)C(=O)N1CC2(CC2)C[C@H]1c1nc(Cl)c(-c2cc3c4c(c2)OCc2cc(-c5[nH]c([C@@H]6CC7(CC7)CN6C(=O)[C@@H](NC(=O)OC)[C@@H](C)CC)nc5C(C)C)cc(c2-4)OC3)[nH]1` [Compound 16, methyl ((2S,3S)-1-((S)-6-(5-(7-(4-chloro-2-((S)-5-((methoxycarbonyl)-L-isoleucyl)-5-azaspiro[2.4]heptan-6-yl)-1H-imidazol-5-yl)-5,10-dihydrochromeno[5,4,3-cde]chromen-2-yl)-4-isopropyl-1H-imidazol-2-yl)-5-azaspiro[2.4]heptan-5-yl)-3-methyl-1-oxopentan-2-yl)carbamate], for which the EC50 came out at 2.3 nM.
As to `COC(=O)N[C@H](C(=O)N1CCC[C@H]1c1nc(C2CC2)c(-c2cc3c4c(c2)OCc2cc(-c5[nH]c([C@@H]6CCCN6C(=O)[C@@H](NC(=O)OC)C(C)C)nc5C5CC5)cc(c2-4)OC3)[nH]1)C(C)C` [Compound 17, dimethyl ((2S,2′S)-((2S,2′S)-((5,10-dihydrochromeno[5,4,3-cde]chromene-2,7-diyl)bis(4-cyclopropyl-1H-imidazole-5,2-diyl))bis(pyrrolidine-2,1-diyl))bis(3-methyl-1-oxobutane-1,2-diyl))dicarbamate], the half-maximal effective concentration (EC50) stood at 74.5 nM.
Consider `CCc1nc([C@@H]2CCCN2C(=O)[C@@H](NC(=O)OC)C(C)C)[nH]c1-c1cc2c3c(c1)OCc1cc(-c4[nH]c([C@@H]5CCCN5C(=O)[C@@H](NC(=O)OC)C(C)C)nc4CC)cc(c1-3)OC2` [Compound 18, dimethyl ((2S,2′S)-((2S,2′S)-((5,10-dihydrochromeno[5,4,3-cde]chromene-2,7-diyl)bis(4-ethyl-1H-imidazole-5,2-diyl))bis(pyrrolidine-2,1-diyl))bis(3-methyl-1-oxobutane-1,2-diyl))dicarbamate], for which the EC50 was 255 nM.
For the compound `COC(=O)N[C@H](C(=O)N1CCC[C@H]1c1nc(C(C)C)c(-c2cc3c4c(c2)OCc2cc(-c5[nH]c([C@@H]6CCCN6C(=O)[C@@H](NC(=O)OC)C(C)C)nc5C(C)C)cc(c2-4)OC3)[nH]1)C(C)C` [Compound 19, dimethyl ((2S,2′S)-((2S,2′S)-((5,10-dihydrochromeno[5,4,3-cde]chromene-2,7-diyl)bis(4-isopropyl-1H-imidazole-5,2-diyl))bis(pyrrolidine-2,1-diyl))bis(3-methyl-1-oxobutane-1,2-diyl))dicarbamate], the EC50 was found to be 15.8 nM.
With `COC(=O)N[C@H](C(=O)N[C@H](c1nc(Cl)c(-c2cc3c4c(c2)OCc2cc(-c5[nH]c([C@@H](NC(=O)[C@@H](NC(=O)OC)C(C)C)C(C)(C)C)nc5Cl)cc(c2-4)OC3)[nH]1)C(C)(C)C)C(C)C` [Compound 20, dimethyl ((2S,2′S)-(((1S,1′S)-((5,10-dihydrochromeno[5,4,3-cde]chromene-2,7-diyl)bis(4-chloro-1H-imidazole-5,2-diyl))bis(2,2-dimethylpropane-1,1-diyl))bis(azanediyl))bis(3-methyl-1-oxobutane-1,2-diyl))dicarbamate] the figure was more than 368 nM; with `COC(=O)N[C@H](C(=O)N1[C@@H](C)CC[C@H]1c1nc(Cl)c(-c2cc3c4c(c2)OCc2cc(-c5[nH]c([C@@H]6CC[C@H](C)N6C(=O)[C@@H](NC(=O)OC)C6C[C@@H](C)O[C@H](C)C6)nc5Cl)cc(c2-4)OC3)[nH]1)C1C[C@@H](C)O[C@H](C)C1` (stereo partly drawn) [Compound 21, dimethyl ((1S,1′S)-((2S,2′S,5S,5′S)-((5,10-dihydrochromeno[5,4,3-cde]chromene-2,7-diyl)bis(4-chloro-1H-imidazole-5,2-diyl))bis(2-methylpyrrolidine-5,1-diyl))bis(1-((2R,6R)-2,6-dimethyltetrahydro-2H-pyran-4-yl)-2-oxoethane-2,1-diyl))dicarbamate], 9.3 nM; with `CC[C@H](C)[C@H](NC(=O)OC)C(=O)N1CCC[C@H]1c1ncc(-c2cc3c4c(c2)OCc2cc(-c5[nH]c([C@@H]6CCCN6C(=O)[C@@H](NC(=O)OC)[C@@H](C)CC)nc5Cl)cc(c2-4)OC3)[nH]1` [Compound 22, methyl ((2S,3S)-1-((S)-2-(5-(7-(4-chloro-2-((S)-1-((methoxycarbonyl)-L-isoleucyl)pyrrolidin-2-yl)-1H-imidazol-5-yl)-5,10-dihydrochromeno[5,4,3-cde]chromen-2-yl)-1H-imidazol-2-yl)pyrrolidin-1-yl)-3-methyl-1-oxopentan-2-yl)carbamate], 14.1 nM.
Take `COC(=O)N[C@H](C(=O)N1CCC[C@H]1c1nc(Cl)c(-c2cc3c4c(c2)OCc2cc(-c5[nH]c([C@@H]6CCCN6C(=O)[C@@H](NC(=O)OC)c6ccccc6)nc5Cl)cc(c2-4)OC3)[nH]1)c1ccccc1` [Compound 23, dimethyl ((1S,1′S)-((2S,2′S)-((5,10-dihydrochromeno[5,4,3-cde]chromene-2,7-diyl)bis(4-chloro-1H-imidazole-5,2-diyl))bis(pyrrolidine-2,1-diyl))bis(2-oxo-1-phenylethane-2,1-diyl))dicarbamate]: the EC50 turned out to be 52.4 nM.
